Tested on: Sarcoma-180
Test: Antitumor test against subcutaneously transplanted Sarcoma-180 in ICR mice (Pharmacological Test 1)
Assay type: in vivo
Details: Sarcoma-180 s.c. in ICR mice, tail vein once a day for 7 consecutive days from 24 h after transplantation, tumor weight on 10th day
Protocol: Sarcoma-180 subcultured in ascites of ICR mice was diluted with a physiological saline and subcutaneously transplanted into the backs of ICR mice in an amount of 2 ×10^7 cells each. Twenty-four hours after the transplantation, a test compound dissolved in sterilized physiological saline was administered to the tail vein of each of the mice once a day for 7 consecutive days.
The solid tumor was isolated from under the dorsal skin of mice on the 10th day after the transplantation to measure the weight of the tumor There was determined the ratio (T/C) of the weight of tumor (T) of the test compound group to the weight of tumor (C) of the control group.

Compound	50% tumor inhibition dose (ED50), dose at which T/C of tumor weight is 0.5	ED50 (Mus musculus, sc, 240 h, read-out: 50% tumor inhibition dose (ED50), dose at which T/C of tumor weight is 0.5)
3'-O-(5-bromo-2-thenyl)-2'-deoxy-5-fluoro-5'-O- glycyluridine hydrochloride [Test Compound 2]	7 mg/kg	
Cl.NCC(=O)OC[C@H]1O[C@@H](n2cc(F)c(=O)[nH]c2=O)C[C@@H]1OCc1ccc(Cl)s1 [Test Compound 1, 3'-O-(5-chloro-2-thenyl)-2'-deoxy-5-fluoro-5'-O-glycyluridine hydrochloride]		5 mg/kg
